Source: ChEMBL document CHEMBL1777696, “Anti-inflammatory activity of constituents from Glechoma hederacea var. longituba” (Bioorg Med Chem Lett, 2011)
Calls of active or inactive are those of the source. The rule behind the calls is not given here.

Assays:
HepG2 [1] = test: Inhibition of TNF-alpha-induced NF-kappaB transactivation expressed in human HepG2 cells at 20 uM preincubated 1 hr before TNFalpha challenge measured after 1 hr by luciferase reporter gene assay; type: cell-based
HepG2 [2] = test: Inhibition of TNF-alpha-induced COX2 mRNA expression in human HepG2 cells expressing NF-kappaB preincubated 1 hr before TNFalpha challenge measured after 6 hrs by RT-PCR analysis; type: functional, cell-based
HepG2 [3] = test: Inhibition of TNF-alpha-induced iNOS mRNA expression in human HepG2 cells expressing NF-kappaB preincubated 1 hr before TNFalpha challenge measured after 6 hrs by RT-PCR analysis; type: functional, cell-based
HepG2 [4] = test: Cytotoxicity against human HepG2 cells up to 20 uM after 24 hrs by MTS assay; type: cell-based; conditions: hepg2, 24 h
HepG2 [5] = test: Inhibition of TNF-alpha-induced NF-kappaB transactivation expressed in human HepG2 cells at 10 uM preincubated 1 hr before TNFalpha challenge measured after 1 hr by luciferase reporter gene assay; type: cell-based
HepG2 [6] = test: Inhibition of TNF-alpha-induced NF-kappaB transactivation expressed in human HepG2 cells at 0.1 to 20 uM preincubated 1 hr before TNFalpha challenge measured after 1 hr by luciferase reporter gene assay; type: cell-based

SMILES	inhibition (HepG2 [1]) [%]	inhibition (HepG2 [2])	inhibition (HepG2 [3])	Activity (HepG2 [4])	inhibition (HepG2 [5]) [%]	inhibition (HepG2 [6])
COC(=O)[C@@H](Cc1ccc(O)c(O)c1)OC(=O)/C=C/c1ccc(OC)c(O)c1	45.4	Dose-dependent effect	Dose-dependent effect	Non-toxic	28.7	
O=C(OCc1ccccc1)c1ccc(O)c(O[C@@H]2O[C@H](CO)[C@@H](O)[C@H](O)[C@H]2O)c1				Non-toxic		Active
COC(=O)[C@@H](Cc1ccc(O)c(O)c1)OC(=O)/C=C/c1ccc(O)c(O)c1 [METHYL ROSMARINATE]	44.3	Dose-dependent effect	Dose-dependent effect	Non-toxic		
COc1cc(/C=C/C(=O)O[C@H](Cc2ccc(O)c(O)c2)C(=O)O)ccc1O				Non-toxic		Active
CCOC(=O)[C@@H](Cc1ccc(O)c(O)c1)OC(=O)/C=C/c1ccc(O)c(O)c1 [ETHYL ROSMARINATE]	57	Dose-dependent effect	Dose-dependent effect	Non-toxic		
O=C(/C=C/c1ccc(O)c(O)c1)O[C@H](Cc1ccc(O)c(O)c1)C(=O)O [ROSMARINIC ACID]	22.7			Non-toxic		
